Results on seven compounds are retold here after ChEMBL document CHEMBL5352506, “The Zinc-Binding Group Effect: Lessons from Non-Hydroxamic Acid Vorinostat Analogs” (J Med Chem, 2023).

Molecules are shown by their SMILES.

For data set [1], the target named is T1, Polyamine deacetylase HDAC10 (Homo sapiens, UniProt Q969S8).
T1 sequence (Q969S8 whole entry): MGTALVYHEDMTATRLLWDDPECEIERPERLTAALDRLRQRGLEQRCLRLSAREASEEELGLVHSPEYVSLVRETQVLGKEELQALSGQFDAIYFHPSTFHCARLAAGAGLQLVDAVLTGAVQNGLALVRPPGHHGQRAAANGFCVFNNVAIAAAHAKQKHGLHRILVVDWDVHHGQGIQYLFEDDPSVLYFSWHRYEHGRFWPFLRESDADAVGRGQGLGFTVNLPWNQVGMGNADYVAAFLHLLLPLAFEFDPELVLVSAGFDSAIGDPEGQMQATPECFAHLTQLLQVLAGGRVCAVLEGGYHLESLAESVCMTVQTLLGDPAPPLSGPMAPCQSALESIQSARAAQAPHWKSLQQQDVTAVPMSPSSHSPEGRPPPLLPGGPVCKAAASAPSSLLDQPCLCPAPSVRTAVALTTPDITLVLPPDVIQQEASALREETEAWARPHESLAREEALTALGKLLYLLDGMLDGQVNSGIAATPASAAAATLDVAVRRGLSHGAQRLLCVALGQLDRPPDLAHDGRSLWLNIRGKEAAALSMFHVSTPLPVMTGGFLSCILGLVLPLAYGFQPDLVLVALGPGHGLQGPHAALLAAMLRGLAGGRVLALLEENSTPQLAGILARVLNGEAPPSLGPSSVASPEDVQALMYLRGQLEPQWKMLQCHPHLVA
The experiment in a line: Inhibition of human recombinant HDAC10.

For another data set, the target named is Histone deacetylase 4 (Homo sapiens, UniProt P56524). Nature of the data set: Inhibition of human recombinant HDAC4.
Another data set deals with Histone deacetylase 9 (Homo sapiens, UniProt Q9UKV0). Nature of the data set: Inhibition of human recombinant HDAC9.
For data set [2], the target named is T2, Protein deacetylase HDAC6 (Homo sapiens, UniProt Q9UBN7).
T2 sequence (Q9UBN7 whole entry): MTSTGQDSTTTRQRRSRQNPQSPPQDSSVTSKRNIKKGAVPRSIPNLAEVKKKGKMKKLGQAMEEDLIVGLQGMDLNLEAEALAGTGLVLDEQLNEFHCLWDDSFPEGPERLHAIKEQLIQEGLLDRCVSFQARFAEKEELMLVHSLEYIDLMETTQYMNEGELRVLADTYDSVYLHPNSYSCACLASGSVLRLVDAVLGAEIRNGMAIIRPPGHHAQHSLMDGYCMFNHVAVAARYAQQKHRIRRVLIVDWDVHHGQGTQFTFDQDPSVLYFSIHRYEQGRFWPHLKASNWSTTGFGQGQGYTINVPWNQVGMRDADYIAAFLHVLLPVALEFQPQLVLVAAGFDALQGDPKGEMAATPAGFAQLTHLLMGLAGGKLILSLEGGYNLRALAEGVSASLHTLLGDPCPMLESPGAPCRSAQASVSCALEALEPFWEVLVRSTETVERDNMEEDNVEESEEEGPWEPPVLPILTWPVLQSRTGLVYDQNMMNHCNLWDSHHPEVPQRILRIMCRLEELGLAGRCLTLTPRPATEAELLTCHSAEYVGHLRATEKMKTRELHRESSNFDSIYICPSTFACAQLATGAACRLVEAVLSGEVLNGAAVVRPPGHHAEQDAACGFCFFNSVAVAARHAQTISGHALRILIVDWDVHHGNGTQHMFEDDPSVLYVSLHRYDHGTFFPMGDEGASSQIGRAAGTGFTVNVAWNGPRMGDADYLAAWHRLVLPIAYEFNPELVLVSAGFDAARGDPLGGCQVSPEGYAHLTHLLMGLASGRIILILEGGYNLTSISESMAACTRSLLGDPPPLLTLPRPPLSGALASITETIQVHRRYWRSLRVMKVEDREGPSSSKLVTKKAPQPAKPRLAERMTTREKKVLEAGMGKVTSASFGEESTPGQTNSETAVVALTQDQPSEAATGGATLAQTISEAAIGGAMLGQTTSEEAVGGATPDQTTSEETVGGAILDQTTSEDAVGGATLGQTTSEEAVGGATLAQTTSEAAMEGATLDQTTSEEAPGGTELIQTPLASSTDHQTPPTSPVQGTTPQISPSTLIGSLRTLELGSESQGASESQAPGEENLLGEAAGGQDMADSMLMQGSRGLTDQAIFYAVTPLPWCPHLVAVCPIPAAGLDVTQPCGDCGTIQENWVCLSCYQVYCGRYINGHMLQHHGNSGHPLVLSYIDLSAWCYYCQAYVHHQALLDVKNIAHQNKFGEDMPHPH
The experiment in a line: Inhibition of human recombinant HDAC6.

In the next data set the target is T3, Histone deacetylase 8 (Homo sapiens, UniProt Q9BY41).
T3 sequence (Q9BY41 whole entry): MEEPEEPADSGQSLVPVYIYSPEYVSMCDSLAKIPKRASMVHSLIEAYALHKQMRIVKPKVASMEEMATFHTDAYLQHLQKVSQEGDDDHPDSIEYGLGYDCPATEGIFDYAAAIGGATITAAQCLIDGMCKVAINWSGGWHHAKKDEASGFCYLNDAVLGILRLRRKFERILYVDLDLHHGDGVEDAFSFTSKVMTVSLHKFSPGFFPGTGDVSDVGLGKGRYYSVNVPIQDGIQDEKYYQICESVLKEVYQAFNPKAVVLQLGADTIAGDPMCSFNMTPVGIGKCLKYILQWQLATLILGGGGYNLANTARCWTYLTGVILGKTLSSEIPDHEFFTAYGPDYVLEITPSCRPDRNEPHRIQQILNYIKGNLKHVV
The experiment in a line: Inhibition of human recombinant HDAC8.

A further data set has as its target T4, Histone deacetylase 11 (Homo sapiens, UniProt Q96DB2).
T4 sequence (Q96DB2 whole entry): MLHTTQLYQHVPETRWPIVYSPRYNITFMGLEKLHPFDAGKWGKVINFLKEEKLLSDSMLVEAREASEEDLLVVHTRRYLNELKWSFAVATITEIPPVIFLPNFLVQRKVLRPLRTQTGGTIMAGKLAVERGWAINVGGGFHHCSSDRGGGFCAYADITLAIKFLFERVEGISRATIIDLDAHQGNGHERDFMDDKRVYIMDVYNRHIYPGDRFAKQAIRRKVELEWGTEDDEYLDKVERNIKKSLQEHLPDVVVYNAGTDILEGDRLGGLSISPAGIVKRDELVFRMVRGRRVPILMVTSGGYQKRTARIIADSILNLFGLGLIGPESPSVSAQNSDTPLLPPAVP
The experiment in a line: Inhibition of human recombinant HDAC11.

The target in the next data set is Histone deacetylase 5 (Homo sapiens, UniProt Q9UQL6). Nature of the data set: Inhibition of human recombinant HDAC5.
The target in data set [3] is T5, Histone deacetylase 1 (Homo sapiens, UniProt Q13547). The experiment in a line: Inhibition of HDAC1 (unknown origin). To be noted: pooled result: one value given for 7 cell lines, strains, targets or settings.
The nature of data set [4]: Stability in mouse plasma assessed as half life. The class given is ADME, cell-free.
A short description of data set [5]: Metabolic stability in mouse liver microsomes assessed as half life. The data set is classed as ADME, Microsome.
The target of data set [6] is T2, Protein deacetylase HDAC6. Nature of the data set: Inhibition of human full-length recombinant HDAC6 incubated for 2 hrs by fluorescence based analysis.
Data set [7] concerns the target T5, Histone deacetylase 1. Nature of the data set: Inhibition of human full-length recombinant HDAC1 incubated for 2 hrs by fluorescence based analysis.
For the next data set, the system named is Toxoplasma gondii. Nature of the data set: Antiparasitic activity against Toxoplasma gondii assessed as parasitic growth inhibition. The class given is functional, organism-based.
A further data set concerns A2780. The experiment in a line: Antiproliferative activity against human A2780 cells assessed as cell growth inhibition. The class given is functional, cell-based.
In a further data set the target is Histone deacetylase. The class given is cell-based, Homo sapiens. To be noted: hela.
The subject of another data set is K562. The experiment in a line: Antiproliferative activity against human K562 cells assessed as inhibition of cell growth by MTT assay. The class given is functional, cell-based. Background: Tetrazolium dyes change colour on reduction, which living cells bring about.
Another data set relates to HeLa. The experiment in a line: Antiproliferative activity against human HeLa cells assessed as inhibition of cell growth by MTT assay. The class given is functional, cell-based.
In another data set the test system is MCF7. Nature of the data set: Antiproliferative activity against human MCF7 cells assessed as inhibition of cell growth by MTT assay. The class given is functional, cell-based.
In the next data set the test system is HEK-293T. Nature of the data set: Antiproliferative activity against HEK293T cells assessed as inhibition of cell growth by MTT assay. The class given is functional, cell-based. To be noted: Homo sapiens.

T5 sequence (Q13547 whole entry): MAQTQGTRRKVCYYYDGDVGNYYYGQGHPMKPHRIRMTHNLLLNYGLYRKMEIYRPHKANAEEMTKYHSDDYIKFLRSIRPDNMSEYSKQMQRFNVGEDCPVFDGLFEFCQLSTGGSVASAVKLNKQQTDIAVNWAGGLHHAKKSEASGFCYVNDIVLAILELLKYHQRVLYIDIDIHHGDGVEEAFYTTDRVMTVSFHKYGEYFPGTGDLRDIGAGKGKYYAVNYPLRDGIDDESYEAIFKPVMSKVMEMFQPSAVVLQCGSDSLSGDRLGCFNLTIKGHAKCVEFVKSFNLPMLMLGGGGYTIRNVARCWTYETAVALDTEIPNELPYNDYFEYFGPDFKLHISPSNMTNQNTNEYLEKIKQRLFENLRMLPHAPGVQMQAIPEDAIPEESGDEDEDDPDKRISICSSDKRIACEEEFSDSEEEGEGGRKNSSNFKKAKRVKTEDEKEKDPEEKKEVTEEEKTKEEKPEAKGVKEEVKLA
Histone deacetylase 9, sequence (Q9UKV0 whole entry): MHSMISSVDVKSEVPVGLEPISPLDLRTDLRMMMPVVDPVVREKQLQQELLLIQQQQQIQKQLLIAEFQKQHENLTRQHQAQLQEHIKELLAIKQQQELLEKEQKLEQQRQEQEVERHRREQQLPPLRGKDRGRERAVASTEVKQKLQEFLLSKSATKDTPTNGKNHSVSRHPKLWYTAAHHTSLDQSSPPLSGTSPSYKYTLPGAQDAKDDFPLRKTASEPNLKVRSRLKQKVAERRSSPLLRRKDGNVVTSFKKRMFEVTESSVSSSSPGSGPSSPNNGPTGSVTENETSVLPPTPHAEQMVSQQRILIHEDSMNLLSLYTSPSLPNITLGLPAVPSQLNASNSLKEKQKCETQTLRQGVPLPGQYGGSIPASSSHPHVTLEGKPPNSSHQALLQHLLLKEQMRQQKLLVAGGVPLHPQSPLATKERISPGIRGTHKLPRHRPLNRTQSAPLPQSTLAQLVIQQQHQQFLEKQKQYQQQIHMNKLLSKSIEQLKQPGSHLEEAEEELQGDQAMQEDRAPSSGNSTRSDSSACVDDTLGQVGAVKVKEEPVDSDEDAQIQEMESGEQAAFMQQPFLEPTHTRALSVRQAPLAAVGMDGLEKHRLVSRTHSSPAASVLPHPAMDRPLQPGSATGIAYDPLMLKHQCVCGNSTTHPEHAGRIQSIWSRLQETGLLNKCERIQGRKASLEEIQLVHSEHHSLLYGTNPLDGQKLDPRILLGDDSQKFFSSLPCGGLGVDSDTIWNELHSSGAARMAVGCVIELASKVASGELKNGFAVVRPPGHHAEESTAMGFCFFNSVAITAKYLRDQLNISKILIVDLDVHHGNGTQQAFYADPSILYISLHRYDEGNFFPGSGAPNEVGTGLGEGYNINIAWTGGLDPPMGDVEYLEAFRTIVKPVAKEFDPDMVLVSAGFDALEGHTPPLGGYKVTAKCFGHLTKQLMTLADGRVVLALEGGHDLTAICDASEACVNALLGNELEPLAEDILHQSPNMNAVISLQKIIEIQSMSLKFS
Histone deacetylase 4, sequence (P56524 whole entry): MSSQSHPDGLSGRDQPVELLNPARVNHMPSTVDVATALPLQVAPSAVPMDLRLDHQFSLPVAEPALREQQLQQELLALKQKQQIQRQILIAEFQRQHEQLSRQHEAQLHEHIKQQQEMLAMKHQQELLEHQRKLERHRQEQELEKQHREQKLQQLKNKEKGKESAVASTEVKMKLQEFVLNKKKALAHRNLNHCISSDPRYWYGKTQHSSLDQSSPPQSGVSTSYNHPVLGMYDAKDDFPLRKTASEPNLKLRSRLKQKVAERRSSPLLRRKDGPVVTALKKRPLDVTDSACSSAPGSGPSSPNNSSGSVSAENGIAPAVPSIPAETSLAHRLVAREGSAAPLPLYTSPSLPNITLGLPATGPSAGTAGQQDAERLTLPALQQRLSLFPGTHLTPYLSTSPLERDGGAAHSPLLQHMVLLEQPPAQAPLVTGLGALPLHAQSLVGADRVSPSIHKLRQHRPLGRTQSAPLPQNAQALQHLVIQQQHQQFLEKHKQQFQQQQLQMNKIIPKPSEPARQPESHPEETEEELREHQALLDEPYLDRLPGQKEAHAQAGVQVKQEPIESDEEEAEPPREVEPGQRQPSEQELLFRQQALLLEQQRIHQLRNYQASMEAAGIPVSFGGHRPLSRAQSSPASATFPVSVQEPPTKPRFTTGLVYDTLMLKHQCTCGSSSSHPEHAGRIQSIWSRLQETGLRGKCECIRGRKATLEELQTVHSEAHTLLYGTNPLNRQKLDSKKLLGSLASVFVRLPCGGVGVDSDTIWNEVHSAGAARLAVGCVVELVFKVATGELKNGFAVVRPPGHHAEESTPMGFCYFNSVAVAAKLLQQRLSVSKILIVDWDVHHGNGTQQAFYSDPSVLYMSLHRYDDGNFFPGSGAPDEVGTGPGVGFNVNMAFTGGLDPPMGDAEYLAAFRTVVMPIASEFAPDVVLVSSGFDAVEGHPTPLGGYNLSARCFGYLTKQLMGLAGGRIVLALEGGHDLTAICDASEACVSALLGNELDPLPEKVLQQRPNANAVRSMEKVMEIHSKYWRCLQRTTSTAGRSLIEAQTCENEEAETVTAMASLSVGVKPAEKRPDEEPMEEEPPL
Histone deacetylase 5, sequence (Q9UQL6 whole entry): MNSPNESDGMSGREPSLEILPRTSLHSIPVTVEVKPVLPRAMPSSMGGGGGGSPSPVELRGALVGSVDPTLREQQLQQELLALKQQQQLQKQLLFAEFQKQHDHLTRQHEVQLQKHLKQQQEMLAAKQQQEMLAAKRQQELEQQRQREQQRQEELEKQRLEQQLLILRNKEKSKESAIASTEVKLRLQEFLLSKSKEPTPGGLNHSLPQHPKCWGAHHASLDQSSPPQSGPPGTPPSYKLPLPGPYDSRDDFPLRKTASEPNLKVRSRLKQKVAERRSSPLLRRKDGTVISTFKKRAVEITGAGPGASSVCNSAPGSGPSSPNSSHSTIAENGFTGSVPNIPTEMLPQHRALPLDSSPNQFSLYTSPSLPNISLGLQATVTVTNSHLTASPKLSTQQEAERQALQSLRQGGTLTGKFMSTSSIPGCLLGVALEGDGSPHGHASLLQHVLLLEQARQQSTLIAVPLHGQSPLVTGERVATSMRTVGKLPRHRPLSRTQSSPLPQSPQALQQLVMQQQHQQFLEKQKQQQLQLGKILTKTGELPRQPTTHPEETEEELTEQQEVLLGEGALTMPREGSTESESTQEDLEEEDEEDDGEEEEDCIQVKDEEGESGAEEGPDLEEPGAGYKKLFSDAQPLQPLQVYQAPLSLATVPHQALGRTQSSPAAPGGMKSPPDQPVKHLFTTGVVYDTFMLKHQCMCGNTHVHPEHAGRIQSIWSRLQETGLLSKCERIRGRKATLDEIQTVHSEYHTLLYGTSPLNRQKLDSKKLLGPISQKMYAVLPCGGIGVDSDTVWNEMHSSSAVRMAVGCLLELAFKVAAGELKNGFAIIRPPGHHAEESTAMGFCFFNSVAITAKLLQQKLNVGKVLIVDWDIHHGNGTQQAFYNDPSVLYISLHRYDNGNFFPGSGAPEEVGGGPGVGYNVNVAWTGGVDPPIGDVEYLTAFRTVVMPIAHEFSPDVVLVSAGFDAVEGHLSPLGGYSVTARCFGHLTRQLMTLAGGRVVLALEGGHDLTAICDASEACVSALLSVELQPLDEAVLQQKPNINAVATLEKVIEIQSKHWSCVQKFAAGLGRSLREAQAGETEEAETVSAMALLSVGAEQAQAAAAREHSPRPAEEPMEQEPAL

As for `O=C(CCCCCCC(=O)C(F)(F)F)Nc1ccccc1`, the IC50 in data set [1] stood at 19 µM; at Histone deacetylase 4, 0.04 µM; at Histone deacetylase 9 it was 5.9 µM; in data set [2], 2.2 µM; at Histone deacetylase 8, 1.7 µM; on Histone deacetylase 11, 100 µM. In addition, the IC50 at Histone deacetylase 5 worked out at 0.04 µM.

As for `CNC(=O)/C(CCCCCCC(=O)Nc1ccccc1)=N\O`, inhibition against Histone deacetylase 1 [3] was half-maximal at 22 µM (IC50).

Consider `Nc1ccccc1NC(=O)CCCCCCC(=O)Nc1ccccc1`, for which the half-life in [4] and in [5] was 1.9 h each time.

Regarding `Cc1onc(-c2ccccc2)c1C(=O)NCCCCCCC(=O)NO`, the results for the IC50 (in [6]; on Histone deacetylase 1 [7]) were 0.18 µM and 3 µM, respectively.

With `C=C1N[C@@](C)(CC)C(=O)N[C@@H](Cc2ccccc2)C(=O)N2C[C@@H](C)C[C@@H]2C(=O)N[C@H]1CCCCCC(=O)[C@@H](C)O`, the IC50 in the data set with Toxoplasma gondii amounted to 0.0286 µM.

In the case of `CP(=O)([O-])CCCCCCC(=O)Nc1ccccc1.[Li+]`, the figures for the IC50 in the data set on A2780, against Histone deacetylase and at Histone deacetylase 8 were 110 µM, 8200 µM and 390 µM, respectively.

For `O=C(CCCCCSc1nc[nH]n1)Nc1ccccc1`, the IC50 with K562 was found to be 11.1 µM; at Histone deacetylase, 8.1 µM; with HeLa, 11.1 µM; in the data set with MCF7 it was 11.1 µM; in the data set with HEK-293T it was 11.1 µM.

The IC50 is the concentration that inhibits the measured activity by half. A word on the half-life: it is how long it takes for the measured level to halve.
